Experimental data taken from BigSolDB 2.1.

Cc1cc(C)[nH]n1
solubility (mole fraction)
Details | in acetone | in acetonitrile | in ethanol | in ethyl acetate | in isopropanol | in methanol | in n-butanol | in n-propanol | in toluene
283.15 K | 0.0625 | 0.0276 | 0.12 | 0.0508 | 0.115 | 0.107 | 0.133 | 0.123 | 0.0339
285.65 K | 0.0691 | 0.0312 | 0.127 | 0.0578 | 0.121 | 0.112 | 0.14 | 0.13 | 0.0382
288.15 K | 0.0757 | 0.0359 | 0.133 | 0.0663 | 0.128 | 0.118 | 0.149 | 0.137 | 0.045
290.65 K | 0.0838 | 0.0408 | 0.14 | 0.077 | 0.134 | 0.123 | 0.158 | 0.145 | 0.0517
293.15 K | 0.0935 | 0.0455 | 0.148 | 0.0881 | 0.142 | 0.131 | 0.166 | 0.152 | 0.0593
295.65 K | 0.105 | 0.0508 | 0.155 | 0.1 | 0.149 | 0.137 | 0.176 | 0.16 | 0.0677
298.15 K | 0.116 | 0.0568 | 0.163 | 0.113 | 0.157 | 0.143 | 0.187 | 0.167 | 0.0769
300.65 K | 0.129 | 0.0635 | 0.171 | 0.128 | 0.164 | 0.15 | 0.199 | 0.175 | 0.0863
303.15 K | 0.143 | 0.0722 | 0.179 | 0.144 | 0.171 | 0.158 | 0.211 | 0.184 | 0.0979
305.65 K | 0.16 | 0.0806 | 0.187 | 0.161 | 0.18 | 0.165 | 0.224 | 0.194 | 0.114
308.15 K | 0.175 | 0.0916 | 0.196 | 0.18 | 0.19 | 0.173 | 0.237 | 0.203 | 0.133
310.65 K | 0.194 | 0.102 | 0.205 | 0.199 | 0.199 | 0.18 | 0.251 | 0.213 | 0.151
313.15 K | 0.213 | 0.116 | 0.217 | 0.223 | 0.211 | 0.19 | 0.265 | 0.226 | 0.171
